Data as given in patent US20040009956A1, “Inhibition of protein tyrosine phosphatases and SH2 domains by a neutral phosphotyrosine mimetic” (priority 2002, published 2004).
“And” between values parts separate entries of the source, which are not always exact repeats. Equal values may be shown once. Read-outs that look alike come from different tables or passages of the source.

Legend:
Assay type in all cases: biochemical
VHR = molecular target: T1, VHR (Homo sapiens, UniProt P51452); assay: PTP inhibition assay (pNPP hydrolysis), dual-specificity phosphatase VHR
T1 construct: made in house; host or cells: Escherichia coli
Experimental: (§1) PTP Inhibition Assays. Stock solutions of inhibitors were prepared in dimethyl sulfoxide (DMSO) and their concentrations were calculated from the known inhibitor masses and solvent volumes. A typical reaction (total volume 1 mL) contained 50 mM HEPES (pH 7.4), 1 mM EDTA, 1 mM tris(carboxyethyl)phosphine (TCEP), 50 mM NaCl, 5% (v/v) DMSO, 0.1-0.2 μM PTP, and 0-2000 μM inhibitor. After incubation of the enzyme with the inhibitor for 1 h at room temperature, the reaction was initiated by the addition of 1.0 mM p-nitrophenyl phosphate (pNPP). The reaction progress was monitored at 405 nm on a Perkin-Elmer UV-Vis spectrophotometer. The IC50 values were determined by plotting the remaining activity as a function of inhibitor concentration, and the K1* values were obtained by fitting the data to the Michaelis-Menten equation. To determine the K1 value, the reaction was initiated by addition of enzyme (0.2 μM) into the above reaction mixture, which also contained 1.0 mM pNPP. The reaction was monitored continuously on the UV-Vis spectrophotometer and the initial reaction rates (<15 s) were fitted to the Michaelis-Menten equation.

PTP1B = molecular target: T2, PTP1B (Homo sapiens, UniProt P18031); assay: PTP inhibition assay (pNPP hydrolysis), PTP1B
T2 construct: made in house; host or cells: Escherichia coli
T2 sequence (P18031 1-435): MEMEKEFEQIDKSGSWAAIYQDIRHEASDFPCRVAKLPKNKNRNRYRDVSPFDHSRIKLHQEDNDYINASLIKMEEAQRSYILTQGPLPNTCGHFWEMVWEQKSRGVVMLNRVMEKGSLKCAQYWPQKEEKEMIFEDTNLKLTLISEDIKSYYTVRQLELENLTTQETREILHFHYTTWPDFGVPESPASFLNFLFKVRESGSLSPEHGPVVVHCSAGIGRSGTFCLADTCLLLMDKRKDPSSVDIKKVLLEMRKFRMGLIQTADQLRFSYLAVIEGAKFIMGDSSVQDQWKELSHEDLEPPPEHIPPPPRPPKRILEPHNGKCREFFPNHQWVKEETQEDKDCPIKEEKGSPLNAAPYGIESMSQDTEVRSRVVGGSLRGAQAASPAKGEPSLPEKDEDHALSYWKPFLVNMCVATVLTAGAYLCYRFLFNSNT
Experimental: as §1
To determine the rate constant κ6, the enzyme (1.0 μM) was incubated with 50-100 μM inhibitor in 100 μL of the above reaction buffer for 3 h at room temperature. The mixture was rapidly diluted into 900 μL of the same reaction buffer containing 1.0 mM pNPP (without inhibitor). Reactivation of PTP activity was monitored at 405 nm and the progress curves were fit to the equation
where νs is the final steady-state velocity. The rate constant κ5 was calculated using the equation
Inactivation of Inhibitor Cinn-GEE by Cysteamine. Cinn-GEE (1 mM) was incubated with 100 mM cysteamine hydrochloride (which had been neutralized by the addition of 1.0 equivalent of NaOH) in 100 μL of a 97:3 DMSO/H2O mixture for 24 h. The treated inhibitor was then used in inhibition assays as described above. As a control, inhibition assay also performed with the same amount of cysteamine hydrochloride/NaOH solution.

SHP-1 = molecular target: T3, SHP-1 (Homo sapiens, UniProt P29350); assay: PTP inhibition assay (pNPP hydrolysis), catalytic domain of SHP-1, SHP-1(ΔSH2)
T3 construct: The catalytic domain of SHP-1, SHP-1(ΔSH2), was purified from a recombinant Escherichia coli strain; made in house; host or cells: Escherichia coli
Experimental: as §1

[1] = slow-binding inhibition, 1 h preincubation, 1.0 mM pNPP, read-out: KI* (overall equilibrium inhibition constant)
[2] = 1 h preincubation with inhibitor, 1.0 mM pNPP, pH 7.4

T3 sequence (P29350 214-595): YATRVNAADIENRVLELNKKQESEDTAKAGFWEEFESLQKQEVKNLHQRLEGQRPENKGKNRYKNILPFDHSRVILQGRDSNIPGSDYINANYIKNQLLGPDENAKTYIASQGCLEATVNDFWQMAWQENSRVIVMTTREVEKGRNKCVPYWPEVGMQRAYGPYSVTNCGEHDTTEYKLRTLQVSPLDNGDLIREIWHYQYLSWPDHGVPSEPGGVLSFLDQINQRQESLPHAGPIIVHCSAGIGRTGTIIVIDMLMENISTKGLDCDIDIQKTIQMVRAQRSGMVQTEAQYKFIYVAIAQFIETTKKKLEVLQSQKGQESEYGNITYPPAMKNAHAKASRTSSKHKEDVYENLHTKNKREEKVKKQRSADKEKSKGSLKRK
T1 sequence (P51452 whole entry, species assumed): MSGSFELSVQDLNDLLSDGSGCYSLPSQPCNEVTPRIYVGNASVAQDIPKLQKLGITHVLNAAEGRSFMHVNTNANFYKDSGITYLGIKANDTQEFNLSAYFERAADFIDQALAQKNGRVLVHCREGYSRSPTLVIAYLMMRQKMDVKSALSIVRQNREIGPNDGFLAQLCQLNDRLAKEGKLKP

What does the source list for `NC(=O)C(CCC(=O)O)NC(=O)C(CCC(=O)O)NC(=O)CNC(=O)c1ccc(C=CC=O)cc1` (stereo not drawn) [Compound 5, N-[4-(3-Oxo-1-propenyl)benzoyl]-Gly-Glu-Glu-NH2]?
Ki (VHR; [1]): 288 µM; κ6, rate for reactivation of PTP1B (PTP1B; E·I* complex preformed 3 h, diluted 10-fold into 1.0 mM pNPP): 0.56 min⁻¹; κ5, rate for conversion of noncovalent E·I complex to covalent complex (PTP1B; calculated from K1*=K1κ6/(κ5+κ6)): 56 min⁻¹; Ki (PTP1B; initial reaction rates (<15 s), reaction initiated by enzyme, read-out: K1, equilibrium inhibition constant for the initial complex E·I): 550 µM; Inhibitory activity against PTP1B after treatment of inhibitor with cysteamine (PTP1B; prior treatment with excess cysteamine): abolished; Ki (PTP1B; [1]): 5.4 µM and 5.42 µM; Ki (SHP-1; [1]): 10.7 µM

With `O=CC=Cc1ccc(C(=O)O)cc1` [Compound 3, 4-(3-Oxo-1-propenyl)benzoic acid] as the compound, how does the IC50 (VHR; [2]) read?
Its IC50 is > 2000 µM.

What about the “Inhibition against VHR” value (VHR; up to 2 mM) of the same compound?
The value was “no significant inhibition”.

What about the IC50 (PTP1B; [2]) of the same compound?
Its IC50 is 970 µM.

What about the IC50 (SHP-1; [2]) of the same compound?
Its IC50 is 230 µM.

Which “Inhibitory activity (in words)” value (VHR) does the source give for `O=Cc1ccccc1` [Compound 1, Benzaldehyde, reference compound] here?
Its value is “least active”.

What about the “Inhibitory activity (in words)” value (PTP1B) of the same compound?
Its value is “least active”.

And the “Inhibitory activity (in words)” value (SHP-1)?
The value was “least active”.
